Laboratory results as given in patent US8293726B2, “Treatment of cancer and other diseases” (Vianova Labs, Inc., priority 2005, dated 2012).

Assays:
[1] = system: human tumor cell line: ductal carcinoma breast; assay: Human tumor cell lines in immunocompromised mice (intraperitoneal, ascitis): breast; assay type: in vivo; conditions: Breast CA; treated mice (4, 2 and 0.8 mg/kg/day orally for 10 days)
Experimental: (§1) Immunocompromised mice were used for this experiment. Mice were inbred in a sterile environment and fed ad libitum. Four groups of 40 mice, weighing approximately 20 g each (range: 17-25 g), were used for each tumor type. The human tumor cell lines used were the following: large B-cell lymphoma; squamous-cell carcinoma of the lung; ductal carcinoma breast; and adenocarcinoma of the lung. A suspension of tumor cells was injected in the peritoneum of immunocompromised mice. Following this, mice were examined and weighed daily. After 6-8 days, we observed the development of abdominal carcinomatosis and […]. At day 18, we observed the development of an abundant […], which increased the weight of the mice by approximately 20 g. At that time, mice were divided into four groups of 10. […] Assessment of tumor cell concentration in the […] abdominal metastases were measured on day 18 and every 2 days thereafter. In all mice, prior to treatment, we observed an increase in LDH ESR (>100) and a decrease in the hematocrit. Control (untreated) mice all died between day 21 and day 25 in all tumor types. […] Complete response: Weight (and ascetic) loss and the disappearance of all abdominal metastatic nodules and tumor cells. Partial response: Weight (and ascitic) loss and at least 25% decrease of tumor cell in the […] least 25% decrease in measured abdominal metastatic nodules. […] Progressive disease: When we observed an increase in […] or tumor volume or death of the animal.

[2] = system: human tumor cell line: large B-cell lymphoma; assay: Human tumor cell lines in immunocompromised mice (intraperitoneal, ascitis): lymphoma; assay type: in vivo; conditions: treated mice (4, 2 and 0.8 mg/kg/day orally for 10 days)
Experimental: as §1

[3] = system: human tumor cell line: squamous-cell carcinoma of the lung; assay: Human tumor cell lines in immunocompromised mice (intraperitoneal, ascitis): squamous lung; assay type: in vivo; conditions: treated mice (4, 2 and 0.8 mg/kg/day orally for 10 days)
Experimental: as §1

human tumor cell lines = assay: Human tumor cell lines in immunocompromised mice, general observations over all tumor types; assay type: in vivo
Experimental: Immunocompromised mice were used for this experiment. Mice were inbred in a sterile environment and fed ad libitum. Four groups of 40 mice, weighing approximately 20 g each (range: 17-25 g), were used for each tumor type. The human tumor cell lines used were the following: large B-cell lymphoma; squamous-cell carcinoma of the lung; ductal carcinoma breast; and adenocarcinoma of the lung. A suspension of tumor cells was injected in the peritoneum of immunocompromised mice. Following this, mice were examined and weighed daily. After 6-8 days, we observed the development of abdominal carcinomatosis and […]. At day 18, we observed the development of an abundant […], which increased the weight of the mice by approximately 20 g. At that time, mice were divided into four groups of 10. […] Assessment of tumor cell concentration in the […] abdominal metastases were measured on day 18 and every 2 days thereafter. In all mice, prior to treatment, we observed an increase in LDH ESR (>100) and a decrease in the hematocrit. Control (untreated) mice all died between day 21 and day 25 in all tumor types.

[4] = system: metastatic renal cell carcinoma (stage IV); assay: Patient case: metastatic renal cell carcinoma; assay type: in vivo, human; conditions: 80 mg/day
[5] = system: hormone resistant metastatic prostate cancer; assay: Patient case: hormone resistant metastatic prostate cancer, PSA; assay type: in vivo, human
Description: A patient presented with hormone resistant metastatic prostate cancer. They had previously been treated with three courses of chemotherapy (Navelbine+Taxotere, but their PSA was still increasing.

uterine cancer stage IIB = assay: Patient case: recurrent uterine cancer; assay type: in vivo, human; conditions: 60 mg/day, within three months; recurrent 3.2 cm pelvic mass before
Description: A patient presented with uterine cancer stage IIB. They previously received cisplatin-based chemotherapy and radiotherapy. […] A cervical biopsy confirms the recurrence. […] Within three months, the tumor had disappeared on clinical exam and abdomino-pelvic CT scan.

[6] = system: left squamous-cell carcinoma of the lung; assay: Patient case: squamous-cell carcinoma of the lung; assay type: in vivo, human
Description: A patient with presented with a left squamous-cell carcinoma of the lung. […] Seven months later the patient received radiotherapy to the left lung. […] The patient undergoes a left pneumonectomy and drug therapy is stopped, but the tumor recurs and the patient dies.

[7] = system: lung large-cell adenocarcinoma metastatic to liver; assay: Patient case: lung large-cell adenocarcinoma metastatic to liver; assay type: in vivo, human; design: LDH: unit not given beside the values
Description: A patient was diagnosed with a lung large-cell adenocarcinoma metastatic to liver. They received chemotherapy with no success. […] They also had frequent hemoptysis and elevated LDH, GGT, and bilirubin. The course of the patient's biologic parameters during treatment are depicted in Table 7.

[8] = system: pancreatic adenocarcinoma; assay: Patient case: pancreatic adenocarcinoma, CA 19-9; assay type: in vivo, human; design: CA 19-9: unit not given beside the values
Description: A diabetic and insulin dependent patient with a past history of lymphoma presented with a 3 cm tumor in the head of pancreas and a suspicion of hepatic metastasis.

[9] = system: experimentally induced large B-cell lymphoma; assay: Therapeutic efficacy in mice with experimentally induced large B-cell lymphoma (blood tests, LDH, body weight, autopsy); assay type: in vivo; conditions: second treated group; M (arithmetic mean of 3 animals)

**Q.** Which results are given for CC[C@H](CC[C@@H](C)[C@H]1CC[C@H]2[C@@H]3C[C@H](O)[C@@]4(O)C[C@@H](O)CC[C@]4(C)[C@H]3CC[C@]12C)C(C)C [24-ethyl-cholestane-3β,5α,6α-triol]?
**A.** Complete Remission [1]: 60%; Partial Remission [1]: 20%; Progressive Disease [1]: 0%; Stable Disease [1]: 20%; Symptomatic Response [1]: 100%; Complete Remission [2]: 80%; Partial Remission [2]: 10%; Progressive Disease [2]: 0%; Stable Disease [2]: 10%; Symptomatic Response [2]: 100%; Complete Remission [3]: 50%; Partial Remission [3]: 30%; Progressive Disease [3]: 0%; Stable Disease [3]: 20%; Symptomatic Response [3]: 100%; survival without recurrence (human tumor cell lines; mice that exhibited a complete response): three month survival without recurrence; general condition (human tumor cell lines; most of the treated mice): improvement in the general condition; hematological abnormalities (human tumor cell lines; most of the treated mice): normalization of hematological abnormalities; time to ascitic regression (rapid response to therapy) (human tumor cell lines; most of the treated mice): 1 to 2 days; tumor cells (human tumor cell lines; most of the treated mice, associated with an important tumor lysis): total clearance of tumor cells; chest CT scan, nodule in the right lower lobe ([4]; eight months later): 1 mm; chest CT scan ([4]; one year after commencing therapy): normal; chest CT scan, left lung metastasis ([4]; six weeks after start, 1 cm deposit in both lungs before): disappearance of the left lung metastasis; PSA ([5]; Day 13, 70 mg/day, Day 0 prior to treatment 1958 (nl < 4)): 1590; PSA ([5]; Day 15, 70 mg/day): 1142; PSA ([5]; Day 67, 70 mg/day): 802; PSA ([5]; Day 110, 70 mg/day): 772; tumor on clinical exam and abdomino-pelvic CT scan (uterine cancer stage IIB): disappeared; general condition ([6]; 50 mg/day, after commencing therapy): drastic and rapid improvement; fibroscopy ([6]; fourteen months after therapy commenced): normal; late outcome ([6]; nearly five years after commencement of therapy): recurrence of the left lung tumor; left lung opacity ([6]; nine months after commencing treatment, radiotherapy to the left lung at seven months): significant regression; LDH ([7]; Day 11, 70 mg/day, Day 0 prior to treatment 2560 (nl < 480)): 2264; LDH ([7]; Day 30, 70 mg/day): 283; LDH ([7]; Day 63, 70 mg/day): 118; Total Bilirubin ([7]; Day 63, 70 mg/day, Day 0 prior to treatment 1.9 (nl < 1)): 0.42; LDH ([7]; Day 85, 70 mg/day): 230; Total Bilirubin ([7]; Day 85, 70 mg/day): 0.37; GGT ([7]; during treatment, 70 mg/day): 31; CT scans, masses in the lungs and liver ([7]; more than a year after commencement of therapy): decrease in number and size of previous masses; CA 19-9 ([8]; Day 1, 50 mg/day, Day 0 prior to treatment 884 (nl < 37)): 793; CA 19-9 ([8]; Day 32, 50 mg/day): 675; CA 19-9 ([8]; Day 59, 50 mg/day (dose then increased to 60 mg/day)): 1127; CA 19-9 ([8]; Day 128, 60 mg/day): 545; CT scan of the abdomen, pancreas ([8]; Day 200 of therapy, 3 cm tumor in the head of pancreas before): no masses seen; neutrophiles/lymphocytes [9]: 0.3024
